Measurements from ChEMBL document CHEMBL5212743, “Selectivity Literature for EUbOPEN Chemogenomics Library wave 3” (2023).
One block for each molecule: values may come before it.

Experiments:
[1] = target: Dual specificity tyrosine-phosphorylation-regulated kinase 1B (Homo sapiens, UniProt Q9Y463); experiment: Selectivity interaction (KinomeScan (DiscoverX)) EUB0000296b DYRK1B; conditions: at 1 µM
[2] = target: Epidermal growth factor receptor (Homo sapiens, UniProt P00533); experiment: Selectivity interaction (MSD Pharma/Taiwan screen (enzymes and receptors) ) EUB0000296b EGFR
[3] = target: T1, Alpha-2C adrenergic receptor (Homo sapiens, UniProt P18825); experiment: Selectivity interaction (Radioligand binding assay (MDS Pharma Service)) EUB0000296b ADRA2C
T1 sequence (P18825 whole entry): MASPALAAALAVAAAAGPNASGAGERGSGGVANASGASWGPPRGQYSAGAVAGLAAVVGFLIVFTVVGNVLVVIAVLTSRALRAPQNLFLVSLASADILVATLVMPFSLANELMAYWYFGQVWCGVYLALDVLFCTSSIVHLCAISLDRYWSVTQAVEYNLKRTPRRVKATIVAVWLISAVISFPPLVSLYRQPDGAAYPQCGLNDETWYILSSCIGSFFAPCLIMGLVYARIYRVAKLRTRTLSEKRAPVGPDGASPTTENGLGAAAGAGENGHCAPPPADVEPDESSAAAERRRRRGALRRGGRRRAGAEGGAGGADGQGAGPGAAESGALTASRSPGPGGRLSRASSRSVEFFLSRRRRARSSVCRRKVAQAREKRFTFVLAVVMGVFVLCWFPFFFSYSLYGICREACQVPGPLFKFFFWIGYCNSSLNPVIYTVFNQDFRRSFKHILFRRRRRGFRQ

[4] = target: eIF-2-alpha kinase GCN2 (Homo sapiens) (UniProt Q9P2K8); experiment: Selectivity interaction (KinomeScan (DiscoverX)) EUB0000296b EIF2AK4; conditions: at 1 µM
[5] = target: Protein kinase C epsilon type (Homo sapiens) (UniProt Q02156); experiment: Selectivity interaction (KinomeScan (DiscoverX)) EUB0000296b PRKCE; conditions: at 1 µM
[6] = target: Synaptic vesicular amine transporter (Homo sapiens, UniProt Q05940); experiment: Selectivity interaction (Radioligand binding assay (MDS Pharma Service)) EUB0000296b SLC18A2
[7] = target: Phosphatidylinositol 4-phosphate 3-kinase C2 domain-containing subunit beta (Homo sapiens) (UniProt O00750); experiment: Selectivity interaction (KinomeScan (DiscoverX)) EUB0000296b PIK3C2B; conditions: at 1 µM
[8] = target: T2, Gamma-aminobutyric acid receptor subunit alpha-1 (Homo sapiens, UniProt P14867); experiment: Selectivity interaction (GPCR panel (PDSP screen)) EUB0000296b GABRA1
T2 sequence (P14867 whole entry): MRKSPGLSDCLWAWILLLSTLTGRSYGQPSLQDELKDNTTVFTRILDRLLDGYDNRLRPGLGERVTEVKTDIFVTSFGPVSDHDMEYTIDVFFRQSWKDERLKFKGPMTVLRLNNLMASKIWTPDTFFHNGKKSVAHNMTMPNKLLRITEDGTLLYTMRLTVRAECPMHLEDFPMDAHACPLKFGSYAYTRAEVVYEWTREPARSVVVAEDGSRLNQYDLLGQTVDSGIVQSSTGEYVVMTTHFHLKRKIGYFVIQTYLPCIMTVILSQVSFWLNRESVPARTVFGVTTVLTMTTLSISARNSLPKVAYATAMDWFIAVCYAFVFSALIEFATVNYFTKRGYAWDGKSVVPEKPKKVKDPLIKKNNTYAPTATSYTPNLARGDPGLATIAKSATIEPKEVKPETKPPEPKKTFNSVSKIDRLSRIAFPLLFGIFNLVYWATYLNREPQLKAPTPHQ

[9] = target: Polyunsaturated fatty acid 5-lipoxygenase (Homo sapiens, UniProt P09917); experiment: Selectivity interaction (MSD Pharma/Taiwan screen (enzymes and receptors) ) EUB0000296b ALOX5
[10] = target: Sodium-dependent dopamine transporter (Homo sapiens, UniProt Q01959); experiment: Selectivity interaction (Radioligand binding assay (MDS Pharma Service)) EUB0000296b SLC6A3
[11] = target: Mitogen-activated protein kinase 14 (Homo sapiens, UniProt Q16539); experiment: Selectivity interaction (MSD Pharma/Taiwan screen (enzymes and receptors) ) EUB0000296b MAPK14
[12] = target: Mitogen-activated protein kinase 3 (Homo sapiens, UniProt P27361); experiment: Selectivity interaction (MSD Pharma/Taiwan screen (enzymes and receptors) ) EUB0000296b MAPK3
[13] = target: Serine/threonine-protein kinase STK11 (Homo sapiens) (UniProt Q15831); experiment: Selectivity interaction (KinomeScan (DiscoverX)) EUB0000296b STK11; conditions: at 1 µM
Adenosine receptor A3 = target: T3, Adenosine receptor A3 (Homo sapiens, UniProt P0DMS8); experiment: Selectivity interaction (Radioligand binding assay (MDS Pharma Service)) EUB0000296b ADORA3
T3 sequence (P0DMS8 whole entry): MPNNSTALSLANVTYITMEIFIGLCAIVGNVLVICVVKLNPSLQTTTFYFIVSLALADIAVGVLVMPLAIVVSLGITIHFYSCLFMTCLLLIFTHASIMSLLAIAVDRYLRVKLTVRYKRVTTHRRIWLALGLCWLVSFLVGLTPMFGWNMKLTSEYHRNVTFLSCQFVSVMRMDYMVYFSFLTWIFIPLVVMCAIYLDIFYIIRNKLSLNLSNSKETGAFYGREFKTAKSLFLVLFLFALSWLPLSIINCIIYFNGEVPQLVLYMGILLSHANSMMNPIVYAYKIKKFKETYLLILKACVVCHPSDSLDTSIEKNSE

Mu-type opioid receptor [14] = target: T4, Mu-type opioid receptor (Homo sapiens, UniProt P35372); experiment: Selectivity interaction (Eurofins Panlabs Discovery Services Panel (enzymes and receptors)) EUB0000234b OPRM1; conditions: at 10 µM
Mu-type opioid receptor [15] = target: T4, Mu-type opioid receptor; experiment: Selectivity interaction (GloSensor assay) EUB0000234b OPRM1
[16] = target: PR domain zinc finger protein 8 (Homo sapiens) (UniProt Q9NQV8); experiment: Selectivity interaction (Methyltransferase panel (DSF assay)) EUB0000234b PRDM8
[17] = target: Histone-lysine N-methyltransferase PRDM7 (Homo sapiens) (UniProt Q9NQW5); experiment: Selectivity interaction (Methyltransferase panel (DSF assay)) EUB0000234b PRDM7
Histamine H3 receptor [18] = target: T5, Histamine H3 receptor (Homo sapiens, UniProt Q9Y5N1); experiment: Selectivity interaction (GloSensor assay) EUB0000234b HRH3
[19] = target: PR domain zinc finger protein 13 (Homo sapiens) (UniProt Q9H4Q3); experiment: Selectivity interaction (Methyltransferase panel (DSF assay)) EUB0000234b PRDM13
[20] = target: Muscarinic acetylcholine receptor M2 (Homo sapiens, UniProt P08172); experiment: Selectivity interaction (GloSensor assay) EUB0000234b CHRM2
[21] = target: PR domain zinc finger protein 14 (Homo sapiens) (UniProt Q9GZV8); experiment: Selectivity interaction (Methyltransferase panel (DSF assay)) EUB0000234b PRDM14
Adenosine receptor A2b = Adenosine receptor A2b (Homo sapiens, UniProt P29275); experiment: Selectivity interaction (GloSensor assay) EUB0000234b ADORA2B
[22] = target: PR domain-containing protein 11 (Homo sapiens) (UniProt Q9NQV5); experiment: Selectivity interaction (Methyltransferase panel (DSF assay)) EUB0000234b PRDM11
[23] = target: Histone-lysine N-methyltransferase PRDM9 (Homo sapiens) (UniProt Q9NQV7); experiment: Selectivity interaction (Methyltransferase panel (DSF assay)) EUB0000234b PRDM9
[24] = target: PR domain zinc finger protein 12 (Homo sapiens) (UniProt Q9H4Q4); experiment: Selectivity interaction (Methyltransferase panel (DSF assay)) EUB0000234b PRDM12
[25] = target: Adenosine receptor A2b (Homo sapiens) (UniProt P29275); experiment: Selectivity interaction (Eurofins Panlabs Discovery Services Panel (enzymes and receptors)) EUB0000234b ADORA2B; conditions: at 10 µM
[26] = target: PR domain zinc finger protein 2 (Homo sapiens) (UniProt Q13029); experiment: Selectivity interaction (Methyltransferase panel (DSF assay)) EUB0000234b PRDM2
[27] = target: PR domain zinc finger protein 1 (Homo sapiens) (UniProt O75626); experiment: Selectivity interaction (Methyltransferase panel (DSF assay)) EUB0000234b PRDM1
[28] = target: Histone-lysine N-methyltransferase MECOM (Homo sapiens) (UniProt Q03112); experiment: Selectivity interaction (Methyltransferase panel (DSF assay)) EUB0000234b MECOM
[29] = target: PR domain zinc finger protein 10 (Homo sapiens) (UniProt Q9NQV6); experiment: Selectivity interaction (Methyltransferase panel (DSF assay)) EUB0000234b PRDM10
[30] = target: Histone-lysine N-methyltransferase PRDM16 (Homo sapiens) (UniProt Q9HAZ2); experiment: Selectivity interaction (Methyltransferase panel (DSF assay)) EUB0000234b PRDM16
[31] = target: T6, Muscarinic acetylcholine receptor M2 (Homo sapiens) (UniProt P08172); experiment: Selectivity interaction (Eurofins Panlabs Discovery Services Panel (enzymes and receptors)) EUB0000234b CHRM2; conditions: at 10 µM
T6 sequence (whole entry): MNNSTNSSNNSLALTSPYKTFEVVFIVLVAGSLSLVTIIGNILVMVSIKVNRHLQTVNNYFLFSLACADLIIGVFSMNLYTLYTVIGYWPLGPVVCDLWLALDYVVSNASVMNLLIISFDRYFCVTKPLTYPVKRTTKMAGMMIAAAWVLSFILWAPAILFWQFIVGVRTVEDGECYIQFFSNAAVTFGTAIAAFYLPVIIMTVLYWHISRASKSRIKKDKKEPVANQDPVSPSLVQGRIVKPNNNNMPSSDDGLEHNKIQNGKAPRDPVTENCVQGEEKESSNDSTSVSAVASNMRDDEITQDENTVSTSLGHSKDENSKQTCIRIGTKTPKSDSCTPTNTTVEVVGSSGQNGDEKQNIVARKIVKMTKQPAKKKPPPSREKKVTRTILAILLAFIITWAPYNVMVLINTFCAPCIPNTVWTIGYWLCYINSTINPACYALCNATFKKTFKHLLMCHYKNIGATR

[32] = target: Putative histone-lysine N-methyltransferase PRDM6 (Homo sapiens) (UniProt Q9NQX0); experiment: Selectivity interaction (Methyltransferase panel (DSF assay)) EUB0000234b PRDM6
[33] = target: Histone-lysine N-methyltransferase PRDM9 (Homo sapiens) (UniProt Q9NQV7); experiment: Selectivity interaction (NanoLuciferase thermal shift assay (NALTSA, in HEK293 cells)) EUB0000234b PRDM9; assay type: cell-based
Histamine H3 receptor [34] = target: T5, Histamine H3 receptor; experiment: Selectivity interaction (Eurofins Panlabs Discovery Services Panel (enzymes and receptors)) EUB0000234b HRH3; conditions: at 10 µM

Sequence of Histone-lysine N-methyltransferase PRDM9 (Homo sapiens) (Q9NQV7 whole entry, the tested form may be a part): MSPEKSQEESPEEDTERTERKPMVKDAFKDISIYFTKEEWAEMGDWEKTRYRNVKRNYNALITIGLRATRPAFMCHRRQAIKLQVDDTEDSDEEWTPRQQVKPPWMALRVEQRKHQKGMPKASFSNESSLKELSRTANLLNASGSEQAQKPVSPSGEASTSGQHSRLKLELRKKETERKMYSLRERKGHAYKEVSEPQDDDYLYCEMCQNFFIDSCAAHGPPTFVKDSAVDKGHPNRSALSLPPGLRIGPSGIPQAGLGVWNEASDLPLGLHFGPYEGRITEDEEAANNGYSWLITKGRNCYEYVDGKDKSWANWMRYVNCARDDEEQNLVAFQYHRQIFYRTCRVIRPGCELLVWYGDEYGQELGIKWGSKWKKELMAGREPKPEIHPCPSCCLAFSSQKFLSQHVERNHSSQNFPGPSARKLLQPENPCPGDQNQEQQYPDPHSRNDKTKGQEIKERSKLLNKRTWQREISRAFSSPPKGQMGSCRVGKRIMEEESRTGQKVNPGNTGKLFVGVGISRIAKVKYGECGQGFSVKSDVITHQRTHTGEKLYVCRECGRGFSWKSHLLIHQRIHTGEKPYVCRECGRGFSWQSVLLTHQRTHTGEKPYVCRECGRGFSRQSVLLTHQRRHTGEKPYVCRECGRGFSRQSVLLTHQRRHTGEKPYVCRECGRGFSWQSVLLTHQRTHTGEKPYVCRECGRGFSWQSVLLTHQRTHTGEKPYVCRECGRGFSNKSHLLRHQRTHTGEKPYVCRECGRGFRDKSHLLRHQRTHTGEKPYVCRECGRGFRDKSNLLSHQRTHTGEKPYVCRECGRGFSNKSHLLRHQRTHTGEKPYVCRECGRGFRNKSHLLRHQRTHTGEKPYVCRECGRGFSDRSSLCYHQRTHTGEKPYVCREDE
T5 sequence (Q9Y5N1 whole entry, the tested form may be a part): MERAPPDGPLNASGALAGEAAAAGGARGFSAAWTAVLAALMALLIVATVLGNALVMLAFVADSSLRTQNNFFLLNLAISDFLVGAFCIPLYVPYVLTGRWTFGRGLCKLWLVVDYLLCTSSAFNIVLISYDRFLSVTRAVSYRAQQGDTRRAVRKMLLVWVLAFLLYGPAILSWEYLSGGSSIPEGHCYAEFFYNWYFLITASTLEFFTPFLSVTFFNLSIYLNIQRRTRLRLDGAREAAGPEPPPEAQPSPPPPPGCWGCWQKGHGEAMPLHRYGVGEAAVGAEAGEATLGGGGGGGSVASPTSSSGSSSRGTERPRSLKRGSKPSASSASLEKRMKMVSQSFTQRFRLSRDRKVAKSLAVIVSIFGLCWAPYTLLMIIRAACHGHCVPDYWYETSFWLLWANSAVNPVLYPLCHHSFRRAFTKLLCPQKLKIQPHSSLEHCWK
T4 sequence (P35372 whole entry): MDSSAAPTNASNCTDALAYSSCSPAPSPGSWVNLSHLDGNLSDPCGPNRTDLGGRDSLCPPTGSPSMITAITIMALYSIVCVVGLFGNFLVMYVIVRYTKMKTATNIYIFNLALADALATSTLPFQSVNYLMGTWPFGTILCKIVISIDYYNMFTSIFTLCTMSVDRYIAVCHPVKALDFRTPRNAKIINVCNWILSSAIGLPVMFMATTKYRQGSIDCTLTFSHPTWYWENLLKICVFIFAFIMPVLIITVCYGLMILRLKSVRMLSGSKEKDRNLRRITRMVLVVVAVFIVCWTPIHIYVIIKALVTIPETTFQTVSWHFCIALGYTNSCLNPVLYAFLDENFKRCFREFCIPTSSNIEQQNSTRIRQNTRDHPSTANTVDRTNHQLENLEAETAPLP
Sequence of Polyunsaturated fatty acid 5-lipoxygenase (P09917 whole entry): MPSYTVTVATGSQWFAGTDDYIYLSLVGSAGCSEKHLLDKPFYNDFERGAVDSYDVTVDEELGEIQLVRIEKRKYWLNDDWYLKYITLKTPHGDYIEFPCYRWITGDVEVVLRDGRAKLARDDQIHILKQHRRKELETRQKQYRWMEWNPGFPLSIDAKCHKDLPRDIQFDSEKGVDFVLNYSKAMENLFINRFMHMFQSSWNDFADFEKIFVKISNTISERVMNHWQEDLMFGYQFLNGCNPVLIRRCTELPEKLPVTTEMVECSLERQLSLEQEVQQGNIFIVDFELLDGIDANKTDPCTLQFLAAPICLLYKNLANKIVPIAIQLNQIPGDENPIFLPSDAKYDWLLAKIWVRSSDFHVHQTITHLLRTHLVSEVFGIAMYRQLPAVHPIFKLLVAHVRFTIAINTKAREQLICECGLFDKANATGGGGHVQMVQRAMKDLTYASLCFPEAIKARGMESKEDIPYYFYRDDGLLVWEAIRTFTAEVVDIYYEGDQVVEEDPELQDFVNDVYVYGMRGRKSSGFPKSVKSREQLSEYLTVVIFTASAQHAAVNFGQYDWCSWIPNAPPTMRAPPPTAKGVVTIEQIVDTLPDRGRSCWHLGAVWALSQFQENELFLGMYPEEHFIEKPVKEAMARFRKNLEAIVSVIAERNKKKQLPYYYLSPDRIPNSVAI
Sequence of Histone-lysine N-methyltransferase MECOM (Homo sapiens) (Q03112 whole entry, the tested form may be a part): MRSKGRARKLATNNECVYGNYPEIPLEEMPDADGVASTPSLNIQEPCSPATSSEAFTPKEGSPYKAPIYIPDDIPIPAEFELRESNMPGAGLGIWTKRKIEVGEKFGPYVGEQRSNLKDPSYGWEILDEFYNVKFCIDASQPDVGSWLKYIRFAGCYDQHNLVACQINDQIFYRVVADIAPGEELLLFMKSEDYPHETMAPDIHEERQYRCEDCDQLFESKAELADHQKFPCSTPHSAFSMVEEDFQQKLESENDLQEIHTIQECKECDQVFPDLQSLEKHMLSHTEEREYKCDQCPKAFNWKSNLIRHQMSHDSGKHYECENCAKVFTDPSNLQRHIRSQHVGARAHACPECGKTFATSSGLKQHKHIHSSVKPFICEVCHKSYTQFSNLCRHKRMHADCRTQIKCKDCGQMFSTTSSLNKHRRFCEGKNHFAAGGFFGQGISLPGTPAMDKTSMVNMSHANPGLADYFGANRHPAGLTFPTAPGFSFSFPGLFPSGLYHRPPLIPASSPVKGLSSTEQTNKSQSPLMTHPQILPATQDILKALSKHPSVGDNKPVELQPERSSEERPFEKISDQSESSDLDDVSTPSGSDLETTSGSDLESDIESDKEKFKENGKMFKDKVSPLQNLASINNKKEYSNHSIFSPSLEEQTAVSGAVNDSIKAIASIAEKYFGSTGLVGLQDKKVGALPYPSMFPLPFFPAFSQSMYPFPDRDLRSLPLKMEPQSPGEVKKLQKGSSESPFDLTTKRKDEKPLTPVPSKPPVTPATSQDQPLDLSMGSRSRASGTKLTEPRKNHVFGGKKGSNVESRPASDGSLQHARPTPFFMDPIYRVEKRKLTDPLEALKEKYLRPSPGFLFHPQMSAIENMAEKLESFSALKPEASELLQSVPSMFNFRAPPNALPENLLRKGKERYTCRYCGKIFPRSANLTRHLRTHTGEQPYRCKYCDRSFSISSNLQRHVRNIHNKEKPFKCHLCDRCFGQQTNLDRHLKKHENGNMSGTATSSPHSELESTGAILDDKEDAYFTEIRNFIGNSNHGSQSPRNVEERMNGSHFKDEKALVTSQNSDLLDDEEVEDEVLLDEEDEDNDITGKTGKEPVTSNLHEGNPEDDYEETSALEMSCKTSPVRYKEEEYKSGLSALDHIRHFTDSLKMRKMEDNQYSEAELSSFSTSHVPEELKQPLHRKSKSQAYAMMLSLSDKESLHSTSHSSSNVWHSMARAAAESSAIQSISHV
Sequence of PR domain-containing protein 11 (Homo sapiens) (Q9NQV5 whole entry, the tested form may be a part): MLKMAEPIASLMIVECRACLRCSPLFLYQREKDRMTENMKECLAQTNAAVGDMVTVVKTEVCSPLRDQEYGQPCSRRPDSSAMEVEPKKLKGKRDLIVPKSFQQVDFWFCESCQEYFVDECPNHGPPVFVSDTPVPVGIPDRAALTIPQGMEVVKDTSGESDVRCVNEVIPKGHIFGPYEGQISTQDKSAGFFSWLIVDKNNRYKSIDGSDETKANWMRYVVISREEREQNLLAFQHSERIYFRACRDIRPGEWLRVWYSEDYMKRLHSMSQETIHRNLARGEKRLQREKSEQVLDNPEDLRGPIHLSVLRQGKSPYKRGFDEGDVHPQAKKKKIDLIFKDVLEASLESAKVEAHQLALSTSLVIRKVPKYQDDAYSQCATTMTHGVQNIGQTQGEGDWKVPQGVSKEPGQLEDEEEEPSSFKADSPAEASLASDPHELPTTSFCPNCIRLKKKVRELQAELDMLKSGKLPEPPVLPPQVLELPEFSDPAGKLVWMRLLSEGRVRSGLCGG
Sequence of Protein kinase C epsilon type (Homo sapiens) (Q02156 whole entry): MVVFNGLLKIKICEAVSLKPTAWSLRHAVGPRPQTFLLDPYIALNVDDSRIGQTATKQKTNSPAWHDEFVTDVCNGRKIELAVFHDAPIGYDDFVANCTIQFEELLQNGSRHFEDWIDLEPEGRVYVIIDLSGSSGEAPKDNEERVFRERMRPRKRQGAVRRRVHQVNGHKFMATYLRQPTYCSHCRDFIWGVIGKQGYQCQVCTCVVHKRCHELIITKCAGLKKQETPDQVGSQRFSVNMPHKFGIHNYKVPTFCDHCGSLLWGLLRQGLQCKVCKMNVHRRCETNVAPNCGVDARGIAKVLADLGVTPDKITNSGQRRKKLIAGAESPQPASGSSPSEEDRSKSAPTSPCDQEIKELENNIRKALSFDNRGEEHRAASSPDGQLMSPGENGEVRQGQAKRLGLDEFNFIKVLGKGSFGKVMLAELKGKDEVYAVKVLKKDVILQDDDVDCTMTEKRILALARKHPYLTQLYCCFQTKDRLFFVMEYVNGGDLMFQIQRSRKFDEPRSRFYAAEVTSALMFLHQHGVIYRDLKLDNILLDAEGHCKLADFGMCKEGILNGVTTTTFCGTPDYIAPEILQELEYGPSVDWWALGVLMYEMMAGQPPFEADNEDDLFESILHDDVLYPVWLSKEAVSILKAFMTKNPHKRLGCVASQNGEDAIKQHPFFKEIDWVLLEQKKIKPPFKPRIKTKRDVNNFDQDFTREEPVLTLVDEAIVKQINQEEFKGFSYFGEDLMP

% of control [1]: 35%
IC50 [2]: 3.26 µM
Ki [3]: 1130 nM
% of control [4]: 48%
% of control [5]: 48%
Ki [6]: 648 nM
% of control [7]: 48%
Ki [8]: 82 nM
IC50 [9]: 1340 nM
Ki [10]: 799 nM
IC50 [11]: 3.68 µM
IC50 [12]: 8.61 µM
% of control [13]: 43%
Ki (Adenosine receptor A3): 773 nM
SMILES: CC(=O)Nc1c(C(C)=O)c(=O)n(C)c2nc(-c3ccc(Cl)cc3Cl)c(-c3ccc(Cl)cc3)cc12 [NAPHTHYRIDINONE]

% of inhibition (Mu-type opioid receptor [14]): > 50%
EC50 (Mu-type opioid receptor [15]): > 10 µM
dTm [16]: < 2 K
dTm [17]: 5 K
EC50 (Histamine H3 receptor [18]): > 10 µM
dTm [19]: < 2 K
EC50 [20]: > 10 µM
dTm [21]: < 2 K
EC50 (Adenosine receptor A2b): > 10 µM
dTm [22]: < 2 K
dTm [23]: 5.2 K
dTm [24]: < 2 K
% of inhibition [25]: > 50%
dTm [26]: < 2 K
dTm [27]: < 2 K
dTm [28]: < 2 K
dTm [29]: < 2 K
dTm [30]: < 2 K
% of inhibition [31]: > 50%
dTm [32]: < 2 K
dTm [33]: 2 K
% of inhibition (Histamine H3 receptor [34]): > 50%
SMILES: COc1cc(OC)cc(-c2noc(N3CCN(C)C4(CCN(c5ccnc(C)c5)CC4)C3)n2)c1
